The source of these data is patent US9145399B2, “Substituted bicyclic triazole derivatives as gamma secretase modulators” (Janssen Pharmaceuticals, Inc., priority 2010, dated 2015).

Structures are written as SMILES. Where only a bound is given, the exact number is not on record here.

For data set [1], the system named is Aβ42. In words: Screening for γ-secretase-modulating activity in SKNBE2 cells carrying APP 695 wild type: Aβ42 in cell supernatant (Alphalisa). The settings on record: overnight incubation. It is filed as cell-based. The method, boiled down:
(§1)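 SKNBE2 cells expressing wild-type APP695 were incubated overnight at 37° C with test compound at several concentrations. Aβ42 and Aβtotal in supernatant were measured by AlphaLISA sandwich immunoassays. IC50 came from 4-parameter non-linear fits of percent of compound-free control versus log concentration.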
On the technique in general: In Alpha technology, singlet oxygen from a donor bead excites a nearby acceptor bead.

For data set [2], the system named is Aβtotal. In words: In vivo efficacy: Aβtotal in brain of non-transgenic mice after single oral dose (ELISA). Set-up: species or system mouse. The settings on record: dose 30 mg/kg oral dosing, soluble brain fraction, animals sacrificed after 4 h, untreated animals (Ctrl) set at 100; for response vs control in vivo at 30 mg/kg: Mus musculus, read-out: Aβtotal (% vs Ctrl)_Mean. From the text:
(§2) To determine whether acute administration of an Aβ42 lowering agent would reduce Aβ42 levels in vivo, non-transgenic rodents, e.g. mice or rats were used. Animals treated with the Aβ42 lowering agent were examined and compared to those untreated or treated with vehicle and brain levels of soluble Aβ42 and total Aβ were quantitated by standard techniques, for example, using ELISA. Treatment periods varied from hours (h) to days and were adjusted based on the results of the Aβ42 lowering once a time course of onset of effect could be established.
(§3) A typical protocol for measuring Aβ42 lowering in vivo is shown but it is only one of many variations that could be used to optimize the levels of detectable Aβ. For example, Aβ42 lowering compounds were formulated in 20% of Captisol® (a sulfobutyl ether of β-cyclodextrin) in water or 20% hydroxypropyl β cyclodextrin. The Aβ42 lowering agents were administered as a single oral dose or by any acceptable route of administration to overnight fasted animals. After 4 h, the animals were sacrificed and Aβ42 levels were analysed.
(§4) Blood was collected by decapitation and exsanguinations in EDTA-treated collection tubes. Blood was centrifuged at 1900 g for 10 minutes (min) at 4° C. and the plasma recovered and flash frozen for later analysis. The brain was removed from the cranium and hindbrain. The cerebellum was removed and the left and right hemisphere were separated. The left hemisphere was stored at −18° C. for quantitative analysis of test compound levels. The right hemisphere was rinsed with phosphate-buffered saline (PBS) buffer and immediately frozen on dry ice and stored at −80° C. until homogenization for biochemical assays.
(§5) Mouse brains from non-transgenic animals were resuspended in 8 volumes of 0.4% DEA (diethylamine)/50 mM NaCl containing protease inhibitors (Roche-11873580001 or 04693159001) per gram of tissue, e.g. for 0.158 g brain, add 1.264 ml of 0.4% DEA. All samples were homogenized in the FastPrep-24 system (MP Biomedicals) using lysing matrix D (MPBio #6913-100) at 6 m/s for 20 seconds. Homogenates were centrifuged at 221.300×g for 50 min. The resulting high speed supernatants were then transferred to fresh eppendorf tubes. Nine parts of supernatant were neutralized with 1 part 0.5 M Tris-HCl pH 6.8 and used to quantify Aβtotal and Aβ42.
(§6) To quantify the amount of Aβtotal and Aβ42 in the soluble fraction of the brain homogenates, Enzyme-Linked-Immunosorbent-Assays were used. Briefly, the standards (a dilution of synthetic Aβ1-40 and Aβ1-42, Bachem) were prepared in 1.5 ml Eppendorf tube in Ultraculture, with final concentrations ranging from 10000 to 0.3 pg/ml. The samples and standards were co-incubated with HRPO-labelled N-terminal antibody for Aβ42 detection and with the biotinylated mid-domain antibody 4G8 for Aβtotal detection. 50 μl of conjugate/sample or conjugate/standards mixtures were then added to the antibody-coated plate (the capture antibodies selectively recognize the C-terminal end of Aβ42, antibody JRF/cAβ42/26, for Aβ42 detection and the N-terminus of Aβ, antibody JRF/rAβ/2, for Aβtotal detection). The plate was allowed to incubate overnight at 4° C. in order to allow formation of the antibody-amyloid complex. Following this incubation and subsequent wash steps the ELISA for Aβ42 quantification was finished by addition of Quanta Blu fluorogenic peroxidase substrate according to the manufacturer's instructions (Pierce Corp., Rockford, Il). A reading was performed after 10 to 15 min (excitation 320 nm/emission 420 nm).
For Aβtotal detection, a Streptavidine-Peroxidase-Conjugate was added, followed 60 min later by an additional wash step and addition of Quanta Blu fluorogenic peroxidase substrate according to the manufacturer's instructions (Pierce Corp., Rockford, Ill). A reading was performed after 10 to 15 min (excitation 320 nm/emission 420 nm). […]
A general note: An ELISA detects its analyte on a solid surface through an enzyme-linked reagent.

The subject of data set [3] is Aβtotal. In words: Screening for γ-secretase-modulating activity in SKNBE2 cells carrying APP 695 wild type: Aβtotal in cell supernatant (Alphalisa). Format: cell-based. The settings on record: overnight incubation. The method, boiled down: as §1
For data set [4], the system named is Aβ42. In words: In vivo efficacy: Aβ42 lowering in brain of non-transgenic mice after single oral dose (ELISA). The settings on record: dose 30 mg/kg oral dosing, soluble brain fraction, animals sacrificed after 4 h, untreated animals (Ctrl) set at 100; for response vs control in vivo at 30 mg/kg: Mus musculus, read-out: Aβ42 (% vs Ctrl) _Mean. Set-up: species or system mouse.
From the text: as §2, §3, §4, §5, §6
In this model at least 20% Aβ42 lowering compared to untreated animals would be advantageous.
The results are shown in Table 4 (dose 30 mg/kg oral dosing) (value for untreated animals as control (Ctrl) was set at 100): […]

Where [5] appears, read: Homo sapiens, SKNBE2, SKNBE2 cells carrying APP 695 wild type.
[6] abbreviates: SKNBE2 cells carrying APP 695 wild type.

The term IC50 denotes the concentration needed to halve the response being measured. Read a low IC50 as greater potency. As a reminder, the melting point is the temperature, or range, at which the solid turns liquid. Consider `COc1cc(Nc2nc3c(-c4ccccc4C(F)(F)F)cccn3n2)ccc1-n1cnc(C)n1` [Compound 3, N-[3-methoxy-4-(3-methyl-1H-1,2,4-triazol-1-yl)phenyl]-8-[2-(trifluoromethyl)phenyl]-[1,2,4]triazolo[1,5-a]pyridin-2-amine], for which the melting point was 195.5 °C. The IC50 in data set [1] (setting [5]) was 19 nM. The response vs control in vivo at 30 mg/kg in data set [2] worked out at 95%. The IC50 in data set [3] (Homo sapiens) is over 10000 nM. Moreover, the response vs control in vivo at 30 mg/kg in data set [4] is 75%.

In turn, `COc1cc(Nc2nc3n(n2)CCC[C@@H]3c2ccccc2Cl)ccc1-n1cnc(C)c1` [Compound 28, (8R)-8-(2-chlorophenyl)-5,6,7,8-tetrahydro-N-[3-methoxy-4-(4-methyl-1H-imidazol-1-yl)phenyl]-[1,2,4]triazolo[1,5-a]pyridin-2-amine] came in with a melting point of 195 °C. The molecule also had a half-inhibitory concentration (IC50) in data set [1] (setting [5]) of 16 nM. For the same molecule, the response vs control in vivo at 30 mg/kg in data set [2] stood at 93%. The molecule further yielded a half-inhibitory concentration (IC50) in data set [3] (Homo sapiens) of 5130 nM. Moreover, in data set [4], the response vs control in vivo at 30 mg/kg is 81%.

For `COc1cc(Nc2nc3n(n2)CCC[C@H]3c2ccccc2Cl)ccc1-n1cnc(C)c1` [Compound 29, (8S)-8-(2-chlorophenyl)-5,6,7,8-tetrahydro-N-[3-methoxy-4-(4-methyl-1H-imidazol-1-yl)phenyl]-[1,2,4]triazolo[1,5-a]pyridin-2-amine], the melting point worked out at 193.2 °C. Moreover, the IC50 in data set [1] (setting [5]) was 25 nM. Besides, the response vs control in vivo at 30 mg/kg in data set [2] came to 98%. In data set [3] (Homo sapiens), this molecule showed a concentration for half-maximal inhibition (IC50) of over 10000 nM. Further, the response vs control in vivo at 30 mg/kg in data set [4] amounted to 99%.

`COc1cc(Nc2nc3n(n2)CCCC3c2ccccc2C(F)(F)F)ccc1-n1cnc(C)c1` (centres unmarked) [Compound 31, 5,6,7,8-tetrahydro-N-[3-methoxy-4-(4-methyl-1H-imidazol-1-yl)phenyl]-8-[2-(trifluoromethyl)phenyl]-[1,2,4]triazolo[1,5-a]pyridin-2-amine] came in with a melting point of 187.9 °C. Moreover, the IC50 in data set [1] (setting [5]) was found to be 13 nM. For the same molecule, the response vs control in vivo at 30 mg/kg in data set [2] came out at 96%. This molecule had a 50% inhibitory concentration (IC50) in data set [3] (Homo sapiens) of 5750 nM. For the same molecule, the response vs control in vivo at 30 mg/kg in data set [4] came to 83%.

As for `Cc1cc(-c2ccc(Nc3nc4n(n3)CCCC4c3ccccc3Cl)cc2)ccn1` (centres unmarked) [Compound 41, 8-(2-chlorophenyl)-5,6,7,8-tetrahydro-N-[4-(2-methyl-4-pyridinyl)phenyl]-[1,2,4]triazolo[1,5-a]pyridin-2-amine], the melting point was 227.2 °C. In data set [1] (setting [5]), this molecule displayed a concentration for half-maximal inhibition (IC50) of 28 nM. The response vs control in vivo at 30 mg/kg in data set [2] came out at 102%. Also, the IC50 in data set [3] (Homo sapiens) is over 10000 nM. The response vs control in vivo at 30 mg/kg in data set [4] amounted to 54%.

Turning to `COc1cc(Nc2nc3n(n2)C(c2ccccc2C(F)(F)F)CCC3)ccc1-c1ccnc(C)c1` (centres unmarked) [Compound 52, 5,6,7,8-tetrahydro-N-[3-methoxy-4-(2-methyl-4-pyridinyl)phenyl]-5-[2-(trifluoromethyl)phenyl]-[1,2,4]triazolo[1,5-a]pyridin-2-amine 1.8 HCl3H2O], the IC50 in data set [1] (setting [5]) was 182 nM; in data set [3] (Homo sapiens), at least 10000 nM. Besides, the response vs control in vivo at 30 mg/kg in data set [2] came to 112%; in data set [4], 45%.

On to `COc1cc(Nc2nc3n(n2)CCOC3c2ccccc2C(F)(F)F)ccc1-c1ccnc(C)c1` (centres unmarked) [Compound 65, 5,6-dihydro-N-[3-methoxy-4-(2-methyl-4-pyridinyl)phenyl]-8-[2-(trifluoromethyl)phenyl]-8H-[1,2,4]triazolo[5,1-c][1,4]oxazin-2-amine], for which the IC50 in data set [1] (setting [5]) is 52 nM; in data set [3] (Homo sapiens), over 10000 nM. For the same molecule, the response vs control in vivo at 30 mg/kg was determined as 101% in data set [2] and 64% in data set [4].

In turn, `COc1cc(Nc2nc3n(n2)CCCC3c2ccccc2Cl)ccc1-c1ccnc(C)c1` (centres unmarked) [Compound 78] displayed a melting point of 169 °C. Besides, in data set [1] (setting [6]), the half-inhibitory concentration (IC50) amounted to 32 nM. Also, in data set [2], the response vs control in vivo at 30 mg/kg was found to be 103%. Besides, in data set [3], the IC50 was over 10000 nM. Further, in data set [4], the response vs control in vivo at 30 mg/kg worked out at 46%.

For the molecule `Cc1cc(-c2ccc(Nc3nc4n(n3)CCCC4c3ccc(F)cc3F)cc2)ccn1` (centres unmarked) [Compound 81, 8-(2,4-difluorophenyl)-5,6,7,8-tetrahydro-N-[4-(2-methyl-4-pyridinyl)phenyl]-[1,2,4]triazolo[1,5-a]pyridin-2-amine], the melting point amounted to 193.7 °C. Further, the midpoint of inhibition in data set [1] (setting [5]), the IC50, lay at 69 nM. Also, the response vs control in vivo at 30 mg/kg in data set [2] was 84%. In data set [3] (Homo sapiens), the 50% inhibitory concentration (IC50) was over 10000 nM. Also, the response vs control in vivo at 30 mg/kg in data set [4] stood at 41%.

`COc1cc(Nc2nc3n(n2)CCCC3c2ccc(F)cc2F)ccc1-c1ccnc(C)c1` (centres unmarked) [Compound 82, 8-(2,4-difluorophenyl)-5,6,7,8-tetrahydro-N-[3-methoxy-4-(2-methyl-4-pyridinyl)phenyl]-[1,2,4]triazolo[1,5-a]pyridin-2-amine]: the melting point turned out to be 192.7 °C. Moreover, in data set [1] (setting [5]), the 50% inhibitory concentration (IC50) was 39 nM. Further, in data set [2], the response vs control in vivo at 30 mg/kg turned out to be 89%. In data set [3] (Homo sapiens), this molecule had an IC50 of over 10000 nM. Besides, the response vs control in vivo at 30 mg/kg in data set [4] was found to be 47%.

`COc1cc(Nc2nc3n(n2)CCOC3c2ccccc2Cl)ccc1-c1ccnc(C)c1` (centres unmarked) [Compound 87, 8-(2-chlorophenyl)-5,6-dihydro-N-[3-methoxy-4-(2-methyl-4-pyridinyl)phenyl]-8H-[1,2,4]triazolo[5,1-c][1,4]oxazin-2-amine]: the melting point came to 181.3 °C. The molecule further returned a half-maximal inhibitory concentration (IC50) in data set [1] (setting [5]) of 35 nM. In data set [2], the response vs control in vivo at 30 mg/kg was determined as 89%. The IC50 in data set [3] (Homo sapiens) was over 10000 nM. Also, the response vs control in vivo at 30 mg/kg in data set [4] came out at 48%.

For the molecule `Cc1cc(-c2ccc(Nc3nc4n(n3)CCCC4c3ccc(F)cc3C)cc2)ccn1` (centres unmarked) [Compound 90, 8-(4-fluoro-2-methylphenyl)-5,6,7,8-tetrahydro-N-[4-(2-methyl-4-pyridinyl)phenyl]-[1,2,4]triazolo[1,5-a]pyridin-2-amine], the melting point turned out to be 153.9 °C. The molecule also gave a half-maximal inhibitory concentration (IC50) in data set [1] (setting [5]) of 56 nM. Also, in data set [2], the response vs control in vivo at 30 mg/kg came to 83%. For the same molecule, the IC50 in data set [3] (Homo sapiens) is over 10000 nM. For the same molecule, in data set [4], the response vs control in vivo at 30 mg/kg stood at 38%.

`COc1ccc(C2CCCn3nc(Nc4ccc(-c5ccnc(C)c5)cc4)nc32)cc1F.Cl.O` (centres unmarked) [Compound 105, 8-(3-fluoro-4-methoxyphenyl)-5,6,7,8-tetrahydro-N-[4-(2-methyl-4-pyridinyl)phenyl]-[1,2,4]triazolo[1,5-a]pyridin-2-amine.1.6HCl.2.4H2O]: the IC50 in data set [1] (setting [6]) was 56 nM; in data set [3] it was over 10000 nM. Moreover, the “Aβtotal (% vs Ctrl)_Mean” value in data set [2] came out at 99 % vs Ctrl. Further, the “Aβ42 (% vs Ctrl) _Mean” value in data set [4] worked out at 51 % vs Ctrl.
